The values below come from patent publication US20240101510A1, “APYRASE INHIBITORS” (Texas Crop Science, priority 2022, published 2024).

In one experiment the test system is apyrase. In words: In vitro apyrase assay (screen for apyrase inhibitors, phosphate release read at 630 nm). Format: biochemical. The note with it: inhibitor conc at 1 mM; 1 hr at room temperature; rounded average of two assay results. As to the method:
Method 1: In Vitro Apyrase Assay: Apyrase inhibitors useful as enhancers of pesticidal activity are assessed using an in vitro assay. The method of Windsor, Bio Techniques 33:1024-1030 (November 2002) was used as follows: Screen for Apyrase Inhibitors - 96 well plates were used for the assay: (Greiner bio-one: REF-655901-96 well, PS, F-bottom, Clear, Non-binding) Buffers: • Reaction Buffer: 60 mM Hepes; 3 mM MgCl2, 3 mM CaCl2 and 3 mM ATP (pH 6.5) • Development Buffer A: 2% aqueous ammonium molybdate • Development Buffer B: 11% ascorbic acid in 37.5% TCA in water • Stop buffer C: 2% trisodium citrate in 2% acetic acid solution in water • Add 100 μl of reaction buffer to each well. • Add […] (control) or inhibitor/compound or compounds such as […] or orthovanadate to each well. […] A blank cell indicates either <10% observed inhibition or a large difference between repetitions. In certain examples, the lack of observed inhibition is due to a lack of solubility of the compound under assay conditions, rather than a lack of apyrase inhibitory activity. Roux compound 15 inhibited apyrase in this assay at about 60%.

The next experiment has as its system Microdochium nivale. Briefly: In vitro assessment of combination activity with fungicides on agar.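 Note: scored as inactive or active or highly active.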 Format: cell-based. The note with it: fungicide at a rate just below that giving any control; visual assessment of % control. The protocol: (§1) Method 2: In Vitro Assessment of Combination Activity
(§2) Selected compounds were assessed in combination with fungicides against a range of commercially important plant pathogenic fungi.
(§3) The test was conducted as follows. A fungicide was applied to a fungal plant pathogen at a rate slightly below that at which it gave any control, in combination with a suitable dose of the test compound. The test compound was recorded as active if control of the pathogen was observed.
(§4) In more detail, the test was conducted as follows. For each combination of fungicide, pathogen and test compound, the following wells were used. Well 1 contained a fungal pathogen growing on agar, and a fungicide at a rate just below that at which it gave any control of the pathogen. Well 2 was the same as Well 1, except that the test compound was also added at Rate 1. Well 3 was the same as Well 2, except that the test compound was added at Rate 2, where Rate 2 was higher than Rate 1. Finally, as a benchmark, Well 4 was the same as Well 1, except that it contained the fungicide at a higher rate, at which it gave partial control of the pathogen. Each of the Wells 1 to 4 were run in duplicate, giving a total of 8 wells for each combination of fungicide, pathogen and test compound. For each well, after a suitable period of incubation, a visual assessment of the % control of the pathogen by the fungicide was made.
(§5) The following fungicides were used in this assay: azoxystrobin, fluxapyroxad, and desthio prothioconazole. The following fungal pathogens were used in this assay. First, a strain of Zymoseptoria tritici with a reduced susceptibility to strobilurin fungicides; second a strain of Zymoseptoria tritici with a reduced susceptibility to SDHI fungicides (i.e., those that inhibit succinate dehydrogenase); and third, Microdochium nivale.

For experiment [1], the system named is Zymoseptoria tritici with a reduced susceptibility to SDHI fungicides. The experiment is described as above. Type of experiment: cell-based. The note with it: fungicide at a rate just below that giving any control; visual assessment of % control. The protocol: as §1, §2, §3, §4, §5;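 note: scored as inactive or active or highly active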
The subject of experiment [2] is Zymoseptoria tritici with a reduced susceptibility to strobilurin fungicides. The description is as above. Format: cell-based. Particulars: fungicide at a rate just below that giving any control; visual assessment of % control. As to the method: as §1, §2, §3, §4, §5
Experiment [3] concerns Asian Soya Rust (Phakopsora pachyrhizi) on soybean. Briefly: Greenhouse crop test in combination with commercial fungicide. Type of experiment: in vivo. The note with it: test compound at 20 ppm. The protocol: (§6) Method 3: Greenhouse Crop Tests
(§7) In this method, exemplary compounds were evaluated for their ability to control Zymoseptoria tritici on wheat, Botrytis cinerea on tomatoes, Asian Soya Rust (Phakopsora pachyrhizi) on soybean, and Brown Rust (Puccinia recondita) on wheat, in a controlled greenhouse environment in combination with one of four fungicides, Amistar, Imtrex, Proline or Balaya. In these studies, soybean cultivar Siverka, tomato (Money maker) and wheat plants (JB Diego) were used. Seeds were sown in 9 cm diameter pots to a depth of 1 to 2 cm using Petersfield potting compost (75% medium grade peat, 12% screened sterilized loam, 3% medium grade vermiculite, 10% grit (5 mm screened, lime free), 1.5 kg PG mix per m3, lime to pH5.5-6.0 and wetting agent (Vitax Ultrawet 200 ml per m3) and germinated/grown at 23° C. under a 16 h day/8 h night light regime. Plants were treated two to three weeks after sowing when they were at the BBCH 11 growth stage (first pair of true leaves (unifoliate) unfolded. A track sprayer was used to treat the plants with the mixture of commercial fungicide and test compound using a water volume of 200 L/ha. Plants were inoculated with the appropriate fungi (pathogen) 24 hours after treatment. Fungal pathogens used were Botrytis cinerea (Grey mold on tomato plants), Zymoseptoria tritici (Septoria leaf blotch on wheat plants), Puccinia triticina (Brown rust on wheat plants) and Phakopsora pachyrhyzi (Asian soy rust on soybean plants). Four replicates were used for each combination of fungicide, pathogen and test compound. Each plant was evaluated once the disease symptoms were fully expressed between seven to twenty days (depending on the pathogen) for % control of the disease. Appropriate controls were used for all experiments, including an ‘inoculation check’ wherein plants were inoculated with their specific pathogen to assess disease levels. Also, each commercial fungicide was tested on its own as a part of each treatment, this being benchmark against which the experimental compounds were evaluated. […] That is, the present compounds, although not fungicidal by themselves, enhance the activity of fungicides.
(§8) In these studies the fungicide was applied at the following rates

The test system of experiment [4] is Botrytis cinerea on tomatoes. The experiment is described as above. Type of experiment: in vivo. The note with it: test compound at 20 ppm. As to the method:
as §6, §7, §8

The subject of experiment [5] is Brown Rust (Puccinia recondita) on wheat. The experiment is described as above. Format: in vivo. The note with it: Imtrex 0.35 L/ha; test compound at 20 ppm. As to the method:
as §6, §7, §8

In experiment [6] the test system is Zymoseptoria tritici on wheat. The experiment is described as above. Format: in vivo. Particulars: test compound at 20 ppm. The protocol: as §6, §7, §8
[7] abbreviates: Balaya 0.0015 L/ha, compared to Balaya alone or with Roux Compound 15 at 30 ppm.
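Throughout, for activity in combination with desthio prothioconazole: scored as inactive or active or highly active.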

In the case of `C/C(=N\NC(=O)c1cccc(NS(C)(=O)=O)c1)c1ccc2ccccc2c1` [I-214, (E)-N-(3-(2-(1-(naphthalen-2-yl)ethylidene)hydrazine-1-carobnyl)phenyl)methanesulfonamide], in the experiment on apyrase, the “% Inhibition of Apyrase” value was 55%. The “activity in combination with fluxapyroxad” value in the experiment on Microdochium nivale is recorded as “significant activity”. For the same molecule, the “activity in combination with desthio prothioconazole” value in experiment [1] and in experiment [2] was “significant activity” throughout. The “activity of Amistar against Asian Soybean Rust with addition of test compound” value in experiment [3] (Amistar 0.02 L/ha) is recorded as “substantially enhanced”. The “activity of Balaya against Asian Soybean Rust with addition of test compound” value in experiment [3] (Balaya 0.03 L/ha) was “substantially enhanced”. In experiment [3] (Proline 0.15 L/ha), the “activity of Proline against Asian Soybean Rust with addition of test compound” value is “substantially enhanced”. Also, the “control of Botrytis by Balaya in combination with test compound” value in experiment [4] (setting [7]) is given as “notably superior control”. In addition, the “control of Botrytis by Imtrex in combination with test compound” value in experiment [4] (Imtrex 0.005 L/ha, compared to Imtrex alone or with Roux Compound 15 at 30 ppm) is “notably superior control”. Also, the “activity of Imtrex against Brown Rust with addition of test compound” value in experiment [5] was “substantially enhanced”. For the same molecule, the “control of Zymoseptoria tritici by Amistar in combination with test compound” value in experiment [6] (Amistar 0.1 L/ha, compared to Amistar alone or with Roux Compound 15 at 30 ppm) is given as “notably superior control”. Further, in experiment [6] (setting [7]), the “control of Zymoseptoria tritici by Balaya in combination with test compound” value is “notably superior control”. In addition, the “control of Zymoseptoria tritici by Imtrex in combination with test compound” value in experiment [6] (Imtrex 0.02 L/ha, similar to Imtrex with Roux Compound 15 at 15 and 30 ppm) is listed as “superior control to Imtrex or Proline alone”. The “control of Zymoseptoria tritici by Proline in combination with test compound” value in experiment [6] (Proline 0.0075 L/ha, compared to Proline alone and with Roux Compound 15) is “superior control to Imtrex or Proline alone”.
